Experimental data as given in the supplement of paper PMC10307832.

Tests used:
Assay in all cases: relative viability (nuclei count vs DMSO), 5 days (fraction); higher = more cells survive
ABC-1 = system: ABC-1
Procedure, shortened: (§1)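 Cells from lung cancer lines were seeded into 1536-well plates and, one day later, dosed by pin tool. Treatments were either a single drug or a fixed dose of an anchor drug with five library-drug doses (not always all listed) in √10 steps. After 5 days, nuclei were stained in a one-step fixation (final 0.05% Triton X-100, 1% formaldehyde, 1 ug/ml Hoechst) and counted on 4× images, and relative viability is the treated-to-vehicle nuclei ratio, as the median of duplicate plates.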

CAL-12T = system: CAL-12T
Procedure, shortened: as §1

COR-L 105 = system: COR-L 105
Procedure, shortened: as §1

ChaGo-K-1 = system: ChaGo-K-1
Procedure, shortened: as §1

EMC-BAC-2 = system: EMC-BAC-2
Procedure, shortened: as §1

EPLC-272H = system: EPLC-272H
Procedure, shortened: as §1

HCC-15 = system: HCC-15
Procedure, shortened: as §1

HCC-78 = system: HCC-78
Procedure, shortened: as §1

HOP-62 = system: HOP-62
Procedure, shortened: as §1

LXF-289 = system: LXF-289
Procedure, shortened: as §1

NCI-H1666 = system: NCI-H1666
Procedure, shortened: as §1

NCI-H1755 = system: NCI-H1755
Procedure, shortened: as §1

NCI-H1915 = system: NCI-H1915
Procedure, shortened: as §1

NCI-H1975 = system: NCI-H1975
Procedure, shortened: as §1

NCI-H2023 = system: NCI-H2023
Procedure, shortened: as §1

NCI-H2085 = system: NCI-H2085
Procedure, shortened: as §1

NCI-H2126 = system: NCI-H2126
Procedure, shortened: as §1

NCI-H3122 = system: NCI-H3122
Procedure, shortened: as §1

NCI-H322M = system: NCI-H322M
Procedure, shortened: as §1

NCI-H358 = system: NCI-H358
Procedure, shortened: as §1

NCI-H441 = system: NCI-H441
Procedure, shortened: as §1

UMC-11 = system: UMC-11
Procedure, shortened: as §1

Work on `Nc1ccn([C@@H]2O[C@H](CO)[C@@H](O)[C@@H]2O)c(=O)n1` [Cytarabine] + COc1cccc2cc(-c3nc([C@H]4CC[C@H](C(=O)O)CC4)n4ncnc(N)c34)[nH]c12 [OSI-027] (partner 0.5 µM) yielded a relative viability (ABC-1; first compound 0.005 µM) of 0.41, a relative viability (ABC-1; first compound 0.01581 µM) of 0.458 and a relative viability (ABC-1; first compound 0.05 µM) of 0.463. For the same molecule, the relative viability (ABC-1; first compound 0.1581 µM) was 0.379, the relative viability (ABC-1; first compound 0.5 µM) was 0.259 and the relative viability (CAL-12T; first compound 0.005 µM) was 0.697. It also gave a relative viability (CAL-12T; first compound 0.01581 µM) of 0.507, a relative viability (CAL-12T; first compound 0.05 µM) of 0.524 and a relative viability (CAL-12T; first compound 0.1581 µM) of 0.233. For the same molecule, the relative viability (CAL-12T; first compound 0.5 µM) was 0.197, the relative viability (COR-L 105; first compound 0.005 µM) was 0.601 and the relative viability (COR-L 105; first compound 0.01581 µM) was 0.587. It also gave a relative viability (COR-L 105; first compound 0.05 µM) of 0.586, a relative viability (COR-L 105; first compound 0.1581 µM) of 0.354 and a relative viability (COR-L 105; first compound 0.5 µM) of 0.224. It also gave a relative viability (ChaGo-K-1; first compound 0.005 µM) of 0.465, a relative viability (ChaGo-K-1; first compound 0.01581 µM) of 0.353 and a relative viability (ChaGo-K-1; first compound 0.05 µM) of 0.247. It also gave a relative viability (ChaGo-K-1; first compound 0.1581 µM) of 0.165, a relative viability (ChaGo-K-1; first compound 0.5 µM) of 0.212 and a relative viability (EMC-BAC-2; first compound 0.005 µM) of 0.413. The relative viability (EMC-BAC-2; first compound 0.01581 µM) was 0.353, the relative viability (EMC-BAC-2; first compound 0.05 µM) was 0.312 and the relative viability (EMC-BAC-2; first compound 0.1581 µM) was 0.27. The relative viability (EMC-BAC-2; first compound 0.5 µM) was 0.22, the relative viability (EPLC-272H; first compound 0.005 µM) was 0.268 and the relative viability (EPLC-272H; first compound 0.01581 µM) was 0.28. The relative viability (EPLC-272H; first compound 0.05 µM) was 0.214, the relative viability (EPLC-272H; first compound 0.1581 µM) was 0.189 and the relative viability (EPLC-272H; first compound 0.5 µM) was 0.182. It also gave a relative viability (HCC-15; first compound 0.005 µM) of 0.597, a relative viability (HCC-15; first compound 0.01581 µM) of 0.67 and a relative viability (HCC-15; first compound 0.05 µM) of 0.669. It also gave a relative viability (HCC-15; first compound 0.1581 µM) of 0.56, a relative viability (HCC-15; first compound 0.5 µM) of 0.412 and a relative viability (HCC-78; first compound 0.005 µM) of 0.368. For the same molecule, the relative viability (HCC-78; first compound 0.01581 µM) was 0.349, the relative viability (HCC-78; first compound 0.05 µM) was 0.314 and the relative viability (HCC-78; first compound 0.1581 µM) was 0.242. For the same molecule, the relative viability (HCC-78; first compound 0.5 µM) was 0.258, the relative viability (HOP-62; first compound 0.005 µM) was 0.554 and the relative viability (HOP-62; first compound 0.01581 µM) was 0.474. The relative viability (HOP-62; first compound 0.05 µM) was 0.458, the relative viability (HOP-62; first compound 0.1581 µM) was 0.141 and the relative viability (HOP-62; first compound 0.5 µM) was 0.12. It also gave a relative viability (LXF-289; first compound 0.005 µM) of 0.671, a relative viability (LXF-289; first compound 0.01581 µM) of 0.634 and a relative viability (LXF-289; first compound 0.05 µM) of 0.419. The relative viability (LXF-289; first compound 0.1581 µM) was 0.237, the relative viability (LXF-289; first compound 0.5 µM) was 0.113 and the relative viability (NCI-H1666; first compound 0.005 µM) was 0.81. It also gave a relative viability (NCI-H1666; first compound 0.01581 µM) of 0.729, a relative viability (NCI-H1666; first compound 0.05 µM) of 0.798 and a relative viability (NCI-H1666; first compound 0.1581 µM) of 0.455. It also gave a relative viability (NCI-H1666; first compound 0.5 µM) of 0.511, a relative viability (NCI-H1755; first compound 0.005 µM) of 0.574 and a relative viability (NCI-H1755; first compound 0.01581 µM) of 0.578. For the same molecule, the relative viability (NCI-H1755; first compound 0.05 µM) was 0.561, the relative viability (NCI-H1755; first compound 0.1581 µM) was 0.318 and the relative viability (NCI-H1755; first compound 0.5 µM) was 0.309. The relative viability (NCI-H1915; first compound 0.005 µM) was 0.657, the relative viability (NCI-H1915; first compound 0.01581 µM) was 0.57 and the relative viability (NCI-H1915; first compound 0.05 µM) was 0.554. For the same molecule, the relative viability (NCI-H1915; first compound 0.1581 µM) was 0.372, the relative viability (NCI-H1915; first compound 0.5 µM) was 0.338 and the relative viability (NCI-H1975; first compound 0.005 µM) was 0.532. For the same molecule, the relative viability (NCI-H1975; first compound 0.01581 µM) was 0.775, the relative viability (NCI-H1975; first compound 0.05 µM) was 0.917 and the relative viability (NCI-H1975; first compound 0.1581 µM) was 0.6. The relative viability (NCI-H1975; first compound 0.5 µM) was 0.315, the relative viability (NCI-H2023; first compound 0.005 µM) was 0.212 and the relative viability (NCI-H2023; first compound 0.01581 µM) was 0.152. The relative viability (NCI-H2023; first compound 0.05 µM) was 0.107, the relative viability (NCI-H2023; first compound 0.1581 µM) was 0.104 and the relative viability (NCI-H2023; first compound 0.5 µM) was 0.102. For the same molecule, the relative viability (NCI-H2085; first compound 0.005 µM) was 0.535, the relative viability (NCI-H2085; first compound 0.01581 µM) was 0.735 and the relative viability (NCI-H2085; first compound 0.05 µM) was 0.623. The relative viability (NCI-H2085; first compound 0.1581 µM) was 0.442, the relative viability (NCI-H2085; first compound 0.5 µM) was 0.459 and the relative viability (NCI-H2126; first compound 0.005 µM) was 0.62. The relative viability (NCI-H2126; first compound 0.01581 µM) was 0.626, the relative viability (NCI-H2126; first compound 0.05 µM) was 0.544 and the relative viability (NCI-H2126; first compound 0.1581 µM) was 0.533. For the same molecule, the relative viability (NCI-H2126; first compound 0.5 µM) was 0.45, the relative viability (NCI-H3122; first compound 0.005 µM) was 0.953 and the relative viability (NCI-H3122; first compound 0.01581 µM) was 0.873. It also gave a relative viability (NCI-H3122; first compound 0.05 µM) of 0.811, a relative viability (NCI-H3122; first compound 0.1581 µM) of 0.461 and a relative viability (NCI-H3122; first compound 0.5 µM) of 0.125. It also gave a relative viability (NCI-H322M; first compound 0.005 µM) of 0.455, a relative viability (NCI-H322M; first compound 0.01581 µM) of 0.392 and a relative viability (NCI-H322M; first compound 0.05 µM) of 0.325. The relative viability (NCI-H322M; first compound 0.1581 µM) was 0.377, the relative viability (NCI-H322M; first compound 0.5 µM) was 0.269 and the relative viability (NCI-H358; first compound 0.005 µM) was 0.608. The relative viability (NCI-H358; first compound 0.01581 µM) was 0.631, the relative viability (NCI-H358; first compound 0.05 µM) was 0.35 and the relative viability (NCI-H358; first compound 0.1581 µM) was 0.104. The relative viability (NCI-H358; first compound 0.5 µM) was 0.091, the relative viability (NCI-H441; first compound 0.005 µM) was 0.629 and the relative viability (NCI-H441; first compound 0.01581 µM) was 0.638. For the same molecule, the relative viability (NCI-H441; first compound 0.05 µM) was 0.617, the relative viability (NCI-H441; first compound 0.1581 µM) was 0.422 and the relative viability (NCI-H441; first compound 0.5 µM) was 0.291. The relative viability (UMC-11; first compound 0.005 µM) was 0.314, the relative viability (UMC-11; first compound 0.01581 µM) was 0.418 and the relative viability (UMC-11; first compound 0.05 µM) was 0.386. The relative viability (UMC-11; first compound 0.1581 µM) was 0.226 and the relative viability (UMC-11; first compound 0.5 µM) was 0.226.
